This assay deals with C. neoformans. The experiment in a line: Metabolic stability of O4 and resistance in C. neoformans cultures. The format is cell-based, Cryptococcus neoformans. The procedure: Cultreus of C. neoformans were exposed to a single dose of 300 μM O4 or 0.1% EtOH during mid-log phase growth (O4A, EtOH1) as in FIG. 1. Two hours later, an aliquot was removed from the culture and subjected to centrifugation at 1500×g for 10 min. The "used" O4-containing media was added to EtOH-treated cells (O4B). "Fresh" O4 was added to cells (final concentration=300 μM) that had already been exposed to O4 for 2 h (O4C). at 24 H, O4-treated cells were again pelleted and resuspended in "fresh" O4-containing media (final concentration=300 μM (O4E)). The "used" O4 media was added to a fresh culture of untreated cells (O4D) and their growth was compared to an identical population of cells treated with EtOH alone (EtOH2).
A series of tests were conducted to assess the metabolic stability of the compound (FIG. 2). Media was harvested from cells treated with a single dose of 300 μM O4 for 2 hr or for 24 hr and added to a exponentially growing culture of C. neoformans that had never been exposed to fatty acid analog. 100 fold and 10 fold decreases (respectively) in viable cell number were observed over the ensuing 2 hr (O4B and O4D in FIG. 2). […] Exponentially growing cultures were also exposed to a single 300 μM dose of O4, a single dose of 0.1% EtOH, or to no additions. Aliquots of each of the cultures were removed 4 and 24 hr later and plated on Sabouraud/agar. […]

Regarding `CCCCCCCCCCOCCC(=O)O` [O4, 4-oxatetradecanoic acid], the log reduction at 300 µM (Cryptococcus neoformans, cells already exposed for 2 hr or 24 hr (O4C, O4E), read-out: further reduction in viable cell number on fresh 300 μM media (converted)) is 0.699. Moreover, for the setting “colonies from cultures exposed 4 and 24 hr, re-exposed to 300 μM”, the “resistance or tolerance of cells after exposure” value is “do not become resistant or tolerant”.

For the origin of these results see patent US5236955A, “Anti-fungal agent” (Washington University, priority 1992, dated 1993).
